Patent US20080090805A1, “CB-1 MODULATING COMPOUNDS AND THEIR USE” (ACADIA PHARMACEUTICALS INC., priority 2005, published 2008)

Tests used:
C57 BK/6 mice = assay: Novel object recognition study; type: in vivo; conditions: test 1 or 2 hours after dosing, CP 55,940 0.3 mg/kg ip, SR141716A 1 mg/kg ip, Compound II 3 mg/kg ip, FIGS. 10, 11
Method: Subjects: Subjects were male, C57 BK/6 mice purchased from Harlan Laboratories, weighing 15-20 g upon arrival. Animals were housed 8 per cage with food and water available ad libidum. Animals were housed on a 12 hr light cycle (lights on 6 am) for 4-7 days prior to behavioral testing.
Equipment: Novel object recognition (NOR) was conducted in a novel environment consisting of a white plastic tub measuring 45.7×33.7×19 cm. Prior to each trial the bottom of the tub was covered with a piece of plastic lined bench top paper. There were two sets of identical objects chosen so that when given a opportunity to explore, mice would evenly divide exploration time between the objects. “A” objects were yellow, ceramic, 12-sided ramekins measuring 4 cm high×7 cm diameter. “B” objects were 8×8×4 cm stainless steel, 4-sided ramekins.
Procedure: At the beginning of each test day, animals were placed in groups of 6 into clean cages. Testing was conducted in three phases: acclimation, sample and test. […] Each mouse was allowed to explore the chamber and the objects for 3 min., and the time spent exploring at each position was recorded. Directly sniffing or touching the object was recorded as exploration. […] The test sessions were recorded on video and scored by an observer blind to each subject's treatment condition. Any time spent directly sniffing or touching an object was counted as exploration. […]

NSA mice [1] = assay: Tail flick study (block of CP 55,940 antinociception); conditions: test compound ip 30 min prior to CP55,940, FIGS. 5A, 5B
NSA mice [2] = assay: Hypothermia study (block of CP 55,940-induced hypothermia); type: in vivo; conditions: pretreatment 30 min prior to CP55,940, dose-dependent, FIG. 6
Method: . […] Core body temperatures were then obtained at various time points following CP 55,940 administration. Core body temperature (to the nearest 0.1° C.) was obtained by rectal probe.

[3] = system: fasted Sprague-Dawley rats; assay: Acute feeding study; type: in vivo; conditions: 1, 3, 10 mg/kg, dose-dependent, FIGS. 2-4
Method: Male, Sprague-Dawley rats (90-120 g) served as subjects for these studies. Rats were fasted for a period of 16 hrs (water was always available). After the fasting period, test compounds were administered either intraperitoneally (ip) or orally (po). Immediately following compound administration, the rats were returned to their home cage. Following 30 min after compound administration, the rats were removed from their home cages and placed individually into clean cages with a pre-measured amount of food. Food weights were obtained (to the nearest 0.1 g) at various time points. Food consumption was monitored for a period of up to 2 hrs (i.e., 2.5 hr after test compound administration).

[4] = system: rats with unilateral 6-OH dopamine lesions; assay: Rotation study (unilateral 6-hydroxy-dopamine lesion); type: in vivo; conditions: 6-OH dopamine lesioned rats; apomorphine 0.05, 0.16, 0.5 mg/kg ip; Compound II 3 mg/kg; FIGS. 14-16
obese Zucker rats = assay: Chronic feeding study; type: in vivo; conditions: 1, 3, 10 mg/kg/day, dose-dependent, FIGS. 9A-9D
Method: Male, obese Zucker rats (400-500 g) served as subjects for these studies. Rats were housed individually and had access to food and water ad libitum. Rats were allowed to acclimate to the vivarium for a period of 3 days, during which body weight and consumption of food and water was monitored. […] Daily food and water intakes were also monitored. Food and water bottles were weighed at the time body weights were recorded (i.e., 1350 hr). Vehicle or compound was administered daily for a period of up to 15 days.

in vitro [5] = conditions: mouse, microsomes, pH 7.4
[6] = microsomes
in vitro [7] = conditions: rat, microsomes, pH 7.4

For `CCCCCCC(C)(C)c1ccc([C@@H]2C[C@H](O)CC[C@H]2CCCO)c(O)c1` [CP 55,940, reference compound], the “preference for the novel object (exploration ratio, discrimination index)” value (C57 BK/6 mice) was “showed a preference for the novel object after 1 hour of being dosed with the test compound but then returned back to baseline exploration rates after 2 hours”.

For `O=C(NN1CCCCC1)c1ccc2c(c1)N=C(C1CCCCC1)c1ccccc1S2` [Compound I, 11-Cyclohexyl-dibenzo[b,f][1,4]thiazepine-8-carboxylic acid piperidin-1-ylamide], the “effect on antinociceptive actions of CP55,940 (tail flick latency)” value (NSA mice [1]) was “attenuates the antinociceptive actions of CP55,940”, the “effect on CP 55,940-induced hypothermia (core body temperature)” value (NSA mice [2]) was “attenuates CP 55,940-induced hypothermia” and the cumulative food intake [3] was “suppresses the cumulative food intake in fasted rats”.

For `CCCCNC(=O)c1ccc2c(c1)N=C(c1ccc(Cl)cc1)c1ccccc1S2` [Compound II, N-(butyl)-11-(4-chlorophenyl)-dibenzo[b,f,][1,4]thiazepine-8-carboxamide], the “preference for the novel object (exploration ratio, discrimination index)” value (C57 BK/6 mice) was “showed a preference for the novel object”, the contralateral rotations [4] was “augments dopaminergic functions” and the “food and water intake” value (obese Zucker rats) was “attenuated the food and water intake of the rats”.

With `CN1CCc2cccc3c2[C@H]1Cc1ccc(O)c(O)c1-3` [apomorphine, reference compound] the contralateral rotations [4] was “dose-dependently elicits contralateral rotations”.

With `CCCCNC(=O)c1ccc2c(c1)N=C(c1ccc(Cl)cc1)c1ccc(Cl)cc1S2` [drawing 1732] the microsomal CLint at 1 μM (in vitro [5]) was 29 µL/min/mg, the “Clearance Human” value [6] was 0 and the microsomal CLint at 1 μM (in vitro [7]) was 24 µL/min/mg.
